According to publication PMC9090415, “Discovery of small molecule inhibitors of Plasmodium falciparum apicoplast DNA polymerase” (Journal of Enzyme Inhibition and Medicinal Chemistry, 2022):

Biological target: P. falciparum apicoplast DNA polymerase (Pf-apPOL) (Plasmodium falciparum, UniProt Q8ILY1)
Assay: Fluorescence-based high-throughput DNA polymerase assay (molecular beacon), primary screen and dose-response
Format: biochemical
Method: The HT assay employs a molecular beacon, a stem-loop DNA template with a Cy3 dye and the Black Hole Quencher on the 3′ and 5′ ends of the DNA, respectively. Pf-apPOL concentration is based on a calculated absorptivity of ε280 = 56750 M^−1 cm^−1. Reactions were carried out at 25 °C, using Corning 3575 […] (well-volume, 20 µL). Assays testing for compound inhibition composed of reaction buffer (pH 7.9 in 50 mM potassium acetate, 20 mM Tris-acetate and 10 mM magnesium acetate), Pf-apPOL (20 nM), DNA substrate (20 nM), dNTPs (6 µM), and compound (10 µM in DMSO). The DNA and nucleotide substrates (dNTPs) were at concentrations of 20 nM and 6 µM, respectively, in the assay. Pf-apPOL was incubated in the reaction buffer with dNTPs and the compound of interest (10 µM, in the assay) at 25 °C for 10 min. The DNA substrate was then added and the reaction was allowed to proceed for 90 min at 25 °C.
Each assay plate contained 16 negative controls (no Pf-apPOL, DMSO present) and 16 positive controls (Pf-apPOL present, no DMSO). The fluorescence of each well was determined using a BioTek Synergy Neo fluorescence plate reader using excitation and emission wavelengths of 555 and 570 nm, respectively.
In the above, Min is the average of fluorescence emission of the negative controls (substrate only), Max the average fluorescence emission from the positive controls (enzyme + substrate), and Test the emission from the assays in the presence of compounds (enzyme + compound + substrates). […] […] The IC50 of each compound was determined using Equation (2): (2) IC50= Vmax/(1+ (I/IC50)^n)
In the above, n measures cooperativity, with n > 1 indicating synergistic binding of more than a single molecule of the compound.
To identify apPOL inhibitors we utilised our previously developed high-throughput DNA polymerase assay. The HT assay is based on a molecular beacon DNA template that forms a stem-loop with a Cy3 dye and the Black Hole Quencher on the 3′ and 5′ ends of the DNA, respectively. DNA polymerase activity extends an annealed primer through the stem region, displacing the fluorophore from the quencher, thereby increasing its fluorescence (Figure 1(A)). The assay accurately recapitulates the kinetic behaviour of apPOL, as measured through more conventional low-throughput gel-based assays. The Z′ factor for the assay described here was 0.9 across all plates (data not shown).
Figure 1. High-throughput screening. (A) The fluorescent-based DNA polymerase assay used to screen the compound libraries. The DNA template strand is a hairpin loop with a primer annealed to the loop. The 3’ end of the primer is 11 bases away from the 6 bp duplex. Strand displacement activity of the DNA polymerase separates the Cy3 dye from the Black hole quencher leading to an increase in fluorescent signal. (B) The high-throughput assay workflow. The DNA polymerase is incubated with […] compound for 10 min prior to addition of the hairpin substrate. The reaction is quenched at 3 different time points and the fluorescent signal is measured and % inhibition is determined using the provided equation.

Chain of P. falciparum apicoplast DNA polymerase (Pf-apPOL) (Q8ILY1 entry or part of it): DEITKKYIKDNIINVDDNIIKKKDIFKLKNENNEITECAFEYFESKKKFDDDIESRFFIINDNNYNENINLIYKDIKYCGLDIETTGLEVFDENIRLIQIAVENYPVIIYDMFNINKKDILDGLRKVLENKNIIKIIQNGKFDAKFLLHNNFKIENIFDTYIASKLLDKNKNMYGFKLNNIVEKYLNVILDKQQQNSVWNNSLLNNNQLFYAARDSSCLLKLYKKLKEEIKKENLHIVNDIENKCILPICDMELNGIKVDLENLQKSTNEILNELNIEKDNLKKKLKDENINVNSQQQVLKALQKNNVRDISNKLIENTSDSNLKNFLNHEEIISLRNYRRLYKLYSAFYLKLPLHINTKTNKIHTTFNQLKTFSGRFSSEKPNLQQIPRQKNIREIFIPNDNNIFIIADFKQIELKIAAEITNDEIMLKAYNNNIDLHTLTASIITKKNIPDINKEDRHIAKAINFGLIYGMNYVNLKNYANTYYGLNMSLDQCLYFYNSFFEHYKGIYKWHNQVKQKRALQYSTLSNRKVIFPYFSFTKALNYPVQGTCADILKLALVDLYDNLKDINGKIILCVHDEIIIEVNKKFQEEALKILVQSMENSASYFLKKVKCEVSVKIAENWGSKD

O=C1c2ccccc2C(=O)c2c1oc1c3c(ccc21)OCN(C1CCCC1)C3 [KU0064306]
% inhibition Apo pol 10' (DRC-1; concentration 2.5; 10'): 14.122% | % inhibition Apol 90' (DRC-1; concentration 2.5; 90'): 11.9333% | % inhibition apPOL 180' (DRC-1; concentration 2.5; 180'): 9.893% | % inhibition Apo pol 10' (DRC-1; concentration 5; 10'): 20.6805% | % inhibition Apol 90' (DRC-1; concentration 5; 90'): 18.9077% | % inhibition apPOL 180' (DRC-1; concentration 5; 180'): 20.5988% | % inhibition Apo pol 10' (DRC-1; concentration 10; 10'): 48.1868% | % inhibition Apol 90' (DRC-1; concentration 10; 90'): 43.2395% | % inhibition apPOL 180' (DRC-1; concentration 10; 180'): 45.5926% | % inhibition Apo pol 10' (DRC-1; concentration 20; 10'): 73.389% | % inhibition Apol 90' (DRC-1; concentration 20; 90'): 72.2655% | % inhibition apPOL 180' (DRC-1; concentration 20; 180'): 74.7554% | % inhibition Apo pol 10' (DRC-1; concentration 40; 10'): 87.7037% | % inhibition Apol 90' (DRC-1; concentration 40; 90'): 89.2086% | % inhibition apPOL 180' (DRC-1; concentration 40; 180'): 90.8162% | % inhibition Apo pol 10' (DRC-1; concentration 80 (unit not given); 10'): 89.3485% | % inhibition Apol 90' (DRC-1; concentration 80; 90'): 90.7443% | % inhibition apPOL 180' (DRC-1; concentration 80; 180'): 92.3974% | % inhibition Apo pol 5' (DRC-2; 5'; concentration 5): 23% | % inhibition Apo pol 5' (DRC-2; 5'; concentration 40): 47% | % inhibition Apol 40' (DRC-2; 40'; concentration 2.5): 17% | % inhibition Apol 40' (DRC-2; 40'; concentration 80): 60% | % inhibition ApPOL 90' (DRC-2; 90'; concentration 2.5): 17% | % inhibition ApPOL 90' (DRC-2; 90'; concentration 10): 47% | % inhibition ApPOL 90' (DRC-2; 90'; concentration 20): 60% | % inhibition apPOL 180' (DRC-2; 180'; concentration 5): 23% | % inhibition apPOL 180' (DRC-2; 180'; concentration 10): 47% | % inhibition Apo pol 5' (DRC-2; concentration 2.5; 5'): 16% | % inhibition Apol 40' (DRC-2; concentration 2.5; 40'): 17% | % inhibition ApPOL 90' (DRC-2; concentration 2.5; 90'): 17% | % inhibition apPOL 180' (DRC-2; concentration 2.5; 180'): 15% | % inhibition Apo pol 5' (DRC-2; concentration 5; 5'): 23% | % inhibition Apol 40' (DRC-2; concentration 5; 40'): 24% | % inhibition ApPOL 90' (DRC-2; concentration 5; 90'): 25% | % inhibition apPOL 180' (DRC-2; concentration 5; 180'): 23% | % inhibition Apo pol 5' (DRC-2; concentration 10; 5'): 42% | % inhibition Apol 40' (DRC-2; concentration 10; 40'): 46% | % inhibition ApPOL 90' (DRC-2; concentration 10; 90'): 47% | % inhibition apPOL 180' (DRC-2; concentration 10; 180'): 47% | % inhibition Apo pol 5' (DRC-2; concentration 20; 5'): 43% | % inhibition Apol 40' (DRC-2; concentration 20; 40'): 55% | % inhibition ApPOL 90' (DRC-2; concentration 20; 90'): 60% | % inhibition apPOL 180' (DRC-2; concentration 20; 180'): 63% | % inhibition Apo pol 5' (DRC-2; concentration 40; 5'): 47% | % inhibition Apol 40' (DRC-2; concentration 40; 40'): 62% | % inhibition ApPOL 90' (DRC-2; concentration 40; 90'): 68% | % inhibition apPOL 180' (DRC-2; concentration 40; 180'): 72% | % inhibition Apo pol 5' (DRC-2; concentration 80; 5'): 44% | % inhibition Apol 40' (DRC-2; concentration 80; 40'): 60% | % inhibition ApPOL 90' (DRC-2; concentration 80; 90'): 65% | % inhibition apPOL 180' (DRC-2; concentration 80; 180'): 70% | DNA Pol (primary screen value of the 186 hits; unit not given; 90 min, 10 µM): 61 | DNA Pol (primary screen value; head prints only 'DNA Pol'; 90 min, 10 µM): 61
